This note sets out measurements from ChEMBL document CHEMBL1641556, “MDCK cell permeability characteristics of a sulfenamide prodrug: strategic implications in considering sulfenamide prodrugs for oral delivery of NH-acids” (Bioorg Med Chem Lett, 2011).

A short description of data set [1]: Hydrolytic stability of the compound assessed as half life at pH 6. The class given is physicochemical. The following applies: buffer.
Data set [2] in a line: Apparent permeability from basolateral to apical side of MDCK cells. The format is ADME, cell-based, Canis lupus familiaris. The following applies: dog.
Data set [3] is described as follows: Apparent permeability from apical to basolateral side of MDCK cells. The class given is ADME, cell-based, Canis lupus familiaris. The following applies: dog.

What is called Papp B→A is the apparent permeability from the basolateral to the apical side of a cell layer. Usually Papp A→B stands for how fast a substance crosses the layer from the apical side.

Take `N[C@@H](CSNC(=O)c1ccccc1)C(=O)O`: the t1/2 in data set [1] came to 6.3 yr. `CC(=O)NC[C@H]1CN(c2ccc(N3CCOCC3)c(F)c2)C(=O)O1` [LINEZOLID]: in data set [2], the Papp B→A stood at 10.6 ×10⁻⁶ cm/s. Besides, the Papp A→B in data set [3] was 9 ×10⁻⁶ cm/s.
